ChEMBL document CHEMBL1201862, “PubChem BioAssay data set” (2004)
Calls of active or inactive are those of the source.

Columns and labels:
[1] = biological target: Mucolipin-3 (Homo sapiens, UniProt Q8TDD5); experiment: Dose response cell-based high-throughput screening assay for agonists of the transient receptor potential channel ML3 (TRPML3). [Related pubchem assays: 1526, 1424, 1448 ]; type: functional
[2] = biological target: Ion channel NompC (Danio rerio, UniProt Q7T1G6); experiment: Fluorescence counterscreen assay for TRPML3 agonists: dose response cell-based high-throughput screening assay to identify agonists of the transient receptor potential channel N1 (TRPN1). [Related pubchem assays: 1526, 1424, 1448 ]; type: functional
[3] = biological target: Bcl-2-like protein 10 (Homo sapiens, UniProt Q9HD36); experiment: displacers of TR3 peptide from Bcl-B, primary screen, selectivity assay for Bfl-1 inhibitor project, biochemical, fluorescence polarization, FITC-TR3 peptide (AID 748);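 note: fluorescence polarization from a fluorescein-labelled TR3 peptide binding purified Bcl-B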
[4] = biological target: T1, SUMO-activating enzyme (Homo sapiens, UniProt Q9UBT2); experiment: SUMOylation inhibitor hit validation, confirmation, SUMOylation inhibitor project, biochemical, AlphaScreen (AID 2018); type: functional
[5] = biological target: T1, SUMO-activating enzyme; experiment: inhibitors of in vitro SUMOylation cascade, primary screen, biochemical, HTRF, uHTS (AID 2006); type: protein-complex assay
[6] = biological target: T2, Eukaryotic translation initiation factor 2-alpha kinase 3 (Homo sapiens, UniProt Q9NZJ5); experiment: Dose response cell-based high-throughput screening assay to measure PERK inhibition. [Related pubchem assays: 1416 ]; type: functional
T2 sequence (Q9NZJ5 whole entry): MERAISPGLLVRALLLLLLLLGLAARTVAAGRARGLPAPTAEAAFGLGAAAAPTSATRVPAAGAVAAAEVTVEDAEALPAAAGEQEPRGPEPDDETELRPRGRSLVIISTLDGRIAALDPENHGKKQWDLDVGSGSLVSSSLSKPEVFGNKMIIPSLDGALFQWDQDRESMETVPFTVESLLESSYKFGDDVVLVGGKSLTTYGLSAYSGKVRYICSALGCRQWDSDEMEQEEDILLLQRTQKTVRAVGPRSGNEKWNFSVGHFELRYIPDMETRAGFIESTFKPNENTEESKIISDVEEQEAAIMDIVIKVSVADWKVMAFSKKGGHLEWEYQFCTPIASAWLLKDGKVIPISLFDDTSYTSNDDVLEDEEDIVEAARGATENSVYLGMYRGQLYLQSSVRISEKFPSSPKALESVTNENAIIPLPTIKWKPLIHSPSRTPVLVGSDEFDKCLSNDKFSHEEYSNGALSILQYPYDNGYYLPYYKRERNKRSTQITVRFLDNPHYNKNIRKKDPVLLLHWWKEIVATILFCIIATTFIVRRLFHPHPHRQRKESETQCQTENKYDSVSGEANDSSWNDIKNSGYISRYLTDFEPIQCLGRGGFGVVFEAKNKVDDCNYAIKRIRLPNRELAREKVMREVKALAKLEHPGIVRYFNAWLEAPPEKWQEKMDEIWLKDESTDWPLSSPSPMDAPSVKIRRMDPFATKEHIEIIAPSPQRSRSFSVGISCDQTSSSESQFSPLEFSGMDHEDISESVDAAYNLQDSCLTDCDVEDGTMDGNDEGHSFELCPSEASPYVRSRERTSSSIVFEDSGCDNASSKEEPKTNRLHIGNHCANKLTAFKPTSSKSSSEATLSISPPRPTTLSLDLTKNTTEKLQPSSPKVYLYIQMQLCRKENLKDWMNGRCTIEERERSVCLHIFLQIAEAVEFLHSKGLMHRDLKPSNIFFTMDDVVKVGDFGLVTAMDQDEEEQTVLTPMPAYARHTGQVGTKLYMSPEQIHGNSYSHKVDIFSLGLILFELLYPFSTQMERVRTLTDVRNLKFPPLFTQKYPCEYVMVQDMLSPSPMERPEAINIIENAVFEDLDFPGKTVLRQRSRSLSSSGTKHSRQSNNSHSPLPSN

[7] = biological target: T3, Heat shock factor protein 1 (Mus musculus, UniProt P38532); experiment: inhibition of MG132-induced HSE-luciferase signal, confirmation, cell-based, NIH3T3, luminescence, dose retest (AID 2382); type: functional;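 note: NIH3T3 fibroblasts with HSF1-driven luciferase reporter stressed by proteasome inhibitor MG132; luminescence from HSF1-driven luciferase expression after 8 hours of MG132 stress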
T3 sequence (P38532 whole entry): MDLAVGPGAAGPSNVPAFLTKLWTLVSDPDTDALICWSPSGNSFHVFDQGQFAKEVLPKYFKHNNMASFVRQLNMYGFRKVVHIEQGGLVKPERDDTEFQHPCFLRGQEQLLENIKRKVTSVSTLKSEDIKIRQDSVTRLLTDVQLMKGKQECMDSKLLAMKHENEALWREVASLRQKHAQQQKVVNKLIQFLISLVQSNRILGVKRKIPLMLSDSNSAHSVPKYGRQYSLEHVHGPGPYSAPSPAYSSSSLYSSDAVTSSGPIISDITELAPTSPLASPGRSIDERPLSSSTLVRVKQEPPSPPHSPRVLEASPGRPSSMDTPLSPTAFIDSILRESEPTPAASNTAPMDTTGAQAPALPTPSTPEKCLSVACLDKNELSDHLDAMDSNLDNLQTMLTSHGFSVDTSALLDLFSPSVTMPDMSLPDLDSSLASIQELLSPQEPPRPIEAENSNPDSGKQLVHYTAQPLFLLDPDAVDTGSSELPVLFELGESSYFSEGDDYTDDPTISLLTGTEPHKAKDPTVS

[8] = biological target: T2, Eukaryotic translation initiation factor 2-alpha kinase 3; experiment: Counterscreen assay for PERK inhibitors: Dose response cell-based high throughput screening assay to measure inhibition of PERK at 6 hours. [Related pubchem assays: 1522, 1416 ]; type: functional
[9] = biological target: Eukaryotic translation initiation factor 4H (Homo sapiens, UniProt Q15056); experiment: human eIF4H binding inhibitors, primary screen, translation initiation inhibitor project, biochemical, uHTS, fluorescence polarization (AID 2012)
[10] = biological target: Polyadenylate-binding protein 1 (Homo sapiens, UniProt P11940); experiment: PABP poly(A) RNA binding inhibitors, primary screen, biochemical, fluorescence polarization, uHTS (AID 2014)
[11] = biological target: T4, Carboxy-terminal domain RNA polymerase II polypeptide A small phosphatase 1 (Homo sapiens, UniProt Q9GZU7); experiment: inhibitors of CTDSP1, concentration-response testing, biochemical assay, absorbance-based, actives from ultra-high-throughput screening (AID 540297); type: functional
T4 sequence (Q9GZU7 whole entry): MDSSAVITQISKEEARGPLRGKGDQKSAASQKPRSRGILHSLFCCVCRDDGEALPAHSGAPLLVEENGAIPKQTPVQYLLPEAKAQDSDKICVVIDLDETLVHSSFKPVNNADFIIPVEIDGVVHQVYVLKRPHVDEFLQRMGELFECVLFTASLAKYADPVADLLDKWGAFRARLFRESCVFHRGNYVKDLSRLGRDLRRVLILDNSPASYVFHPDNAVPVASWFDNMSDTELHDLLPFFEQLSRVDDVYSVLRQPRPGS

[12] = biological target: Acyl-homoserine lactone acylase PvdQ (Pseudomonas aeruginosa (strain LESB58), UniProt Q9I194); experiment: P. aeruginosa PvdQ acylase inhibitors, dose response, biochemical, fluorescence, plate reader and imaging, cherry-picks (AID 493231)
[13] = biological target: Cytochrome P450 2C9 (Homo sapiens, UniProt P11712); conditions: Potency
[14] = biological target: Lysosomal acid glucosylceramidase (Homo sapiens, UniProt P04062); experiment: Dose response cell-based high throughput screening assay to identify enhancers of beta-glucosidase activity. [Related pubchem assays: 784 ]; type: functional
[15] = tested on: Streptococcus sp. 'group A'; experiment: growth inhibition of control SK(-) GAS strain, dose response, counter-screen for streptokinase expression inhibitor project, luminescence, kanamycin, BacTiterGlo, confirmation (AID 1900); type: functional, organism-based
[16] = tested on: Streptococcus; experiment: Group A Streptococcus viability loss, dose response, counter-screen for streptokinase expression inhibitor project, luminescence, BacTiterGlo (AID 1915); type: functional, organism-based;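 note: potency for reduction of bacterial viability or growth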
[17] = biological target: T5, Short transient receptor potential channel 4 (Mus musculus, UniProt Q9QUQ5); experiment: mouse TRPC4 channel activators, dose response, cell-based, HEK293 TRPC4/mu-opioid, Fluo-4 calcium (AID 434937); type: functional
T5 sequence (Q9QUQ5 whole entry): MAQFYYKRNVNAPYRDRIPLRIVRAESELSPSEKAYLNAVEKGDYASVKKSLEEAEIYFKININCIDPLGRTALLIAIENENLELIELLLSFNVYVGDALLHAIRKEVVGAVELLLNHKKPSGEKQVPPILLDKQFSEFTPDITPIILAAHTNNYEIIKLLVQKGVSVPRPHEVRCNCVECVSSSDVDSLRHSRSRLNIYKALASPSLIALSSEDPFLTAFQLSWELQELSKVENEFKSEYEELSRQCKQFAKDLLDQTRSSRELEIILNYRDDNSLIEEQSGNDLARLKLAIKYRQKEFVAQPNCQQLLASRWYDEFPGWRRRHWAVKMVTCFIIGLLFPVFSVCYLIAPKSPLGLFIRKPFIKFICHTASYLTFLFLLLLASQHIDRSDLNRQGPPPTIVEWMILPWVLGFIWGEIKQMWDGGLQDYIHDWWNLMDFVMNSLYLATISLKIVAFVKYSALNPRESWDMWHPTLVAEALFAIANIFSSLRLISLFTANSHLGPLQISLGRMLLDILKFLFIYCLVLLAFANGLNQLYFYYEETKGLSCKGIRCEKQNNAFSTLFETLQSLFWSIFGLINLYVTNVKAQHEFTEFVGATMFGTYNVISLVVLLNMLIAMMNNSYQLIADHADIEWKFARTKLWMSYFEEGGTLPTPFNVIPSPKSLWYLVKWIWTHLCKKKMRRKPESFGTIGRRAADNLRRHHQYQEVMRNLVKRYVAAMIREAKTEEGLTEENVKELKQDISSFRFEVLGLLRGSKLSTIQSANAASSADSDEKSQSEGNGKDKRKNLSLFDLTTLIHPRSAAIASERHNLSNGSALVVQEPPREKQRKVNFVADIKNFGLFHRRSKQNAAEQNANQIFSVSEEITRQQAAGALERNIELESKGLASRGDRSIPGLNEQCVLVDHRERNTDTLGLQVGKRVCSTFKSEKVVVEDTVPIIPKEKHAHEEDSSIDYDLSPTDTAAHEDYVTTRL

[18] = tested on: Vero; experiment: cells; type: functional; conditions: Chlorocebus sabaeus
[19] = A Cell Based Secondary Assay To Explore Cytotoxicity of Compounds that Sensitize Mycobacterium Tuberculosis to Beta-Lactam Antibiotics.; type: functional
[20] = inhibitors of intracellular T. cruzi replication, confirmation, NIH3T3 host cells, beta-gal luminescence (AID 2044); type: functional, cell-based;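 note: intracellular parasites grown in NIH/3T3 mouse fibroblasts as host cells; luminescent beta-galactosidase reporter signal from transgenic T. cruzi replicating inside host cells; inhibitors lower the luminescence signal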
[21] = cytotoxicity toward NIH3T3 fibroblasts, dose response, counter-screen, cell-based, ATP luminescence, mouse fibroblasts (AID 2010); type: functional;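 note: cells exposed to compound for about 90 hours before reading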
[22] = biological target: Cytochrome P450 3A4 (Homo sapiens, UniProt P08684); conditions: Potency;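 note: confirmatory qHTS run detecting inhibitors and substrates of CYP3A4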
[23] = biological target: T6, Coagulation factor XII (Homo sapiens, UniProt P00748); type: functional;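 note: activated factor XIIa alpha cleaving a fluorogenic AMC peptide substrate; inhibitor potency from loss of enzyme activity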
T6 sequence (P00748 whole entry): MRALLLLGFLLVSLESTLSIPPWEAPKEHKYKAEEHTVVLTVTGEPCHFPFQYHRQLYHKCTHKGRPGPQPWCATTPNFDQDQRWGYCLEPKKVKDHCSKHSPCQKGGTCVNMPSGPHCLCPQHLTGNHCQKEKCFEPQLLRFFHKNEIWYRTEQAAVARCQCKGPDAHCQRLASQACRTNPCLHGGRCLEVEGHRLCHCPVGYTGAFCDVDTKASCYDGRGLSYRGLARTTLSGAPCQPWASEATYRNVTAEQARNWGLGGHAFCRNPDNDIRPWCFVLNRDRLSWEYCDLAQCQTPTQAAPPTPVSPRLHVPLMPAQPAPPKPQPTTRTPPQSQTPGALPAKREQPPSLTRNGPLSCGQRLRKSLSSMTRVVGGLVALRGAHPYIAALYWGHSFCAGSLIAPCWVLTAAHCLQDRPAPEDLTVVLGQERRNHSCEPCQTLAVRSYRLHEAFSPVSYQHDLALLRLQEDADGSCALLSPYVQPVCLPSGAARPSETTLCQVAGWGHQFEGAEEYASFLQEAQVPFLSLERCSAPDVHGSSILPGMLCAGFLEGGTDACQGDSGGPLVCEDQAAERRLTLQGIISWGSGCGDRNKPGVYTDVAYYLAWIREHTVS

Sequence of Polyadenylate-binding protein 1 (P11940 whole entry, the tested form may be a part): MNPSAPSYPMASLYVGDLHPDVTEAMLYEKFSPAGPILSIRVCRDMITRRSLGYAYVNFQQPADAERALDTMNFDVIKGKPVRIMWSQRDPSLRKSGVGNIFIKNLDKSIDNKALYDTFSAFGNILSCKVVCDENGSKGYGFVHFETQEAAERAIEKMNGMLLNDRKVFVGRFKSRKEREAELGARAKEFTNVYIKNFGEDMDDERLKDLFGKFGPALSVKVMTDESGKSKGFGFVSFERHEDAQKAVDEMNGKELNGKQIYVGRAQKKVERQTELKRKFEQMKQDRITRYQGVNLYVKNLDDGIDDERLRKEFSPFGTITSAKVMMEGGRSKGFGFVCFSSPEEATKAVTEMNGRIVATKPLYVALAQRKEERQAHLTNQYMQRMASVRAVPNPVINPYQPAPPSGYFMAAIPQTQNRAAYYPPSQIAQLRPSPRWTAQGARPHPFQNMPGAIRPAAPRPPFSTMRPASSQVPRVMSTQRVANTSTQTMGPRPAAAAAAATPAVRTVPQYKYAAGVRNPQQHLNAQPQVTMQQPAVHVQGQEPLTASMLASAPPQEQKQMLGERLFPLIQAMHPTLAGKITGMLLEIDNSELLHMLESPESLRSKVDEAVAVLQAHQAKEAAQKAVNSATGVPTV
Sequence of Mucolipin-3 (Q8TDD5 whole entry): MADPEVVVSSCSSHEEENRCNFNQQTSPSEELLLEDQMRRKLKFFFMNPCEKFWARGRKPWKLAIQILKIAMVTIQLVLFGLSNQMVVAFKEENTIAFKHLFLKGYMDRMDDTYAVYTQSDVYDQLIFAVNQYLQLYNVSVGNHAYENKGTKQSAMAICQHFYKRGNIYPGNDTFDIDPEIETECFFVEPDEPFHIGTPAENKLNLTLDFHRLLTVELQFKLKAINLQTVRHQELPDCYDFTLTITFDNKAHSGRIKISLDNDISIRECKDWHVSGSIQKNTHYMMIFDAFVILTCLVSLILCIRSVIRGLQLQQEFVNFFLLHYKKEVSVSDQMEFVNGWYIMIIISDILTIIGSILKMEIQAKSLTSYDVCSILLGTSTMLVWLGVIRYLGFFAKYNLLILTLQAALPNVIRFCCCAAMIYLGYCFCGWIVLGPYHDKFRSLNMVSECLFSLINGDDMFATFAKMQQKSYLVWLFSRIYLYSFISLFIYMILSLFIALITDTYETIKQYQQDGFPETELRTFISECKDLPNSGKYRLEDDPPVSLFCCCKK
Sequence of Lysosomal acid glucosylceramidase (P04062 whole entry): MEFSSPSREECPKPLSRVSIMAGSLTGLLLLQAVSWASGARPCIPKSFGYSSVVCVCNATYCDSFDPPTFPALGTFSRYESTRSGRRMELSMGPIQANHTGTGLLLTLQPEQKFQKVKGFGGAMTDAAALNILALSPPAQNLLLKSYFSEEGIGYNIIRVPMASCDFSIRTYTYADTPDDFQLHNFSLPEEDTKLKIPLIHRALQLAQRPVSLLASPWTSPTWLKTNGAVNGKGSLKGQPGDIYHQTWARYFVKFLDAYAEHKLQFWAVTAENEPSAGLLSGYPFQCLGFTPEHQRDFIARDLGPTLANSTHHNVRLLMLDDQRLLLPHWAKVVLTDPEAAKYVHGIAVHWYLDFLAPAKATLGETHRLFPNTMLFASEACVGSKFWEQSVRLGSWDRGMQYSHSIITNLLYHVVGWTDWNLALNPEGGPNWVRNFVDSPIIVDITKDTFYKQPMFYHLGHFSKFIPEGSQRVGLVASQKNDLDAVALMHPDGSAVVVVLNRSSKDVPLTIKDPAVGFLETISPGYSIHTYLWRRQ
Sequence of Bcl-2-like protein 10 (Q9HD36 whole entry): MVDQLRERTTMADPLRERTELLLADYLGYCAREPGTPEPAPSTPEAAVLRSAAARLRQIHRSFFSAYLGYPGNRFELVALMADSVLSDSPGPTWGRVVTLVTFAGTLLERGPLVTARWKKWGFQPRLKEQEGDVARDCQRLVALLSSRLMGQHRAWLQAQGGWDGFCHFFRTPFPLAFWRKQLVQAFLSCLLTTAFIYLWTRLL
T1 sequence (Q9UBE0 whole entry): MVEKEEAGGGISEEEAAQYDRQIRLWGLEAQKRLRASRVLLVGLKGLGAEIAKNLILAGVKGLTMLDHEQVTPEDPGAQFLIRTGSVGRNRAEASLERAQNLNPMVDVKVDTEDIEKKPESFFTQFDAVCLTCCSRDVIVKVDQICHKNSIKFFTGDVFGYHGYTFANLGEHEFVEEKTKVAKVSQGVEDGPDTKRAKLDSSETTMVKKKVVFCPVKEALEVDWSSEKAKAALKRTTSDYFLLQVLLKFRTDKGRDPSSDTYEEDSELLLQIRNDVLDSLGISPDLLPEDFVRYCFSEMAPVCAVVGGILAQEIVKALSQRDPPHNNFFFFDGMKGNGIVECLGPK
T1 sequence (Q9UBT2 whole entry): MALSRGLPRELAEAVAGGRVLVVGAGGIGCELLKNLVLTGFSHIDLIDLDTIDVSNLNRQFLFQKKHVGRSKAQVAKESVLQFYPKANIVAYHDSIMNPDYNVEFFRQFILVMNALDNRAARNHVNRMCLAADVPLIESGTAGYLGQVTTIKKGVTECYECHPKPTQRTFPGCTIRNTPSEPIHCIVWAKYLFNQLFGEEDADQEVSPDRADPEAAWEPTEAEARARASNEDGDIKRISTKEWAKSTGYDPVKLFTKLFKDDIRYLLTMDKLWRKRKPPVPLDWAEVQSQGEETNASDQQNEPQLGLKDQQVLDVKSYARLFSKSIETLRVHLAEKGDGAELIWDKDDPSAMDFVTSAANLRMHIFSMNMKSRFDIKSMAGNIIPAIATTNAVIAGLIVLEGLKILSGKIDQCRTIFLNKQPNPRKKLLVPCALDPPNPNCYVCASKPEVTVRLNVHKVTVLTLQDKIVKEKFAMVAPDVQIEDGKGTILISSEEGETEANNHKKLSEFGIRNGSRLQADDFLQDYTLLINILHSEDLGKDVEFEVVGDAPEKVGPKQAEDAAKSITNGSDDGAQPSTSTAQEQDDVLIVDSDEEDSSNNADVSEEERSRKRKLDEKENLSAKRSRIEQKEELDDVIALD
Sequence of Ion channel NompC (Q7T1G6 whole entry): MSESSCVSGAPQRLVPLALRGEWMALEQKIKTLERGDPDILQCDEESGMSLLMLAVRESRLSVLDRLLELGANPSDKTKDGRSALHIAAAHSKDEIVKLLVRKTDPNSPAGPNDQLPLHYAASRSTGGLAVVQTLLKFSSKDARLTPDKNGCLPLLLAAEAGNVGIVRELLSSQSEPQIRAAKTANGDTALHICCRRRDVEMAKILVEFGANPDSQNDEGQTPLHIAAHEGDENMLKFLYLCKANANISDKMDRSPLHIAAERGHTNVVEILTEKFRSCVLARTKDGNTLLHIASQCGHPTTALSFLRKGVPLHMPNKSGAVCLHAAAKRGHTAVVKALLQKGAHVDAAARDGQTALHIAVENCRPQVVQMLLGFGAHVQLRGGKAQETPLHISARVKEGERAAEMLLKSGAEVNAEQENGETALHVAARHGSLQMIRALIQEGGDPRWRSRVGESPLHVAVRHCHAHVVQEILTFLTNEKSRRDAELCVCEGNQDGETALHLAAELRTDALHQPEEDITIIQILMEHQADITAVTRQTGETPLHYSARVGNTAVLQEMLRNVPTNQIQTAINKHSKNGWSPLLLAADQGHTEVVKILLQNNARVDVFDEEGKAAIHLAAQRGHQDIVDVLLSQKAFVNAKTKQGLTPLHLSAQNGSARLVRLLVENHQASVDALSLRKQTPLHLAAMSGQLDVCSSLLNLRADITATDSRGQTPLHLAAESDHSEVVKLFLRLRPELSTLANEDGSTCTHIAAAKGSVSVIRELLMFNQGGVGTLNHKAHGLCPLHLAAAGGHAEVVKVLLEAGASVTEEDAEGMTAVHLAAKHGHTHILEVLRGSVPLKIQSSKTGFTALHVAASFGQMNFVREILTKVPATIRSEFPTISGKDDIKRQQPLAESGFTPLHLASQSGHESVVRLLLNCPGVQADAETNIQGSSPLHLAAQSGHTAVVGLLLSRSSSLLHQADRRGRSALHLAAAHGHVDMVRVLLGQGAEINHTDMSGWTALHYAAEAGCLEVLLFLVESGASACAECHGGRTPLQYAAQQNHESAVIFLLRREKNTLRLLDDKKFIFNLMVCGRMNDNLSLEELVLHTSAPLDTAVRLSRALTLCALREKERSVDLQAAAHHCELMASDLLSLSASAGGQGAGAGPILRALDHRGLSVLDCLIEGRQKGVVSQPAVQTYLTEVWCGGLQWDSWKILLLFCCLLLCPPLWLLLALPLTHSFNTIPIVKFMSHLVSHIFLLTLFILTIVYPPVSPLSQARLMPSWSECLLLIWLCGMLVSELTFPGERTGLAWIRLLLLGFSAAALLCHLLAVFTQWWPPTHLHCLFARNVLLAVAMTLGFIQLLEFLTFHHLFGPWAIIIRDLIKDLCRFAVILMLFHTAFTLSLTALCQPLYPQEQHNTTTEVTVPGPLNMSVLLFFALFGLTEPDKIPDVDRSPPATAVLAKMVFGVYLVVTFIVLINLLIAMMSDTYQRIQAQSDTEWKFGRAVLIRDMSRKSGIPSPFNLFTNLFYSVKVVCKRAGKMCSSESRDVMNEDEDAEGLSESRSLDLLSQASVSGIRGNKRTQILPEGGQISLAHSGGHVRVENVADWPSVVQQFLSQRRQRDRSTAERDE

## CN(C)c1ncc(S(=O)(=O)c2ccccc2)c(-c2ccc(Cl)cc2Cl)n1
[1]
  EC50: 1.87 µM (active)
[2]
  EC50: > 29.9 µM (not active)

## CN(C)c1cccc(C(=O)OCc2cc(=O)oc3cc(O)ccc23)c1
[3]
  IC50: 62.4 µM (inactive)
[4]
  IC50: 5.73 µM (active)
[5]
  IC50: 22.6 µM (active)

## Cc1ccccc1CO/N=C/c1[nH]ncc1Br
[6]
  EC50: > 55.7 µM (not active)
[7]
  EC50: > 195 µM (not active)
[8]
  EC50: > 55.7 µM (not active)

## C[N+]1(CC2COC3(CCCCC3)O2)CCCCC1 (stereo unspecified)
[9]
  IC50: > 100 µM (inactive)
[10]
  IC50: 6.05 µM (active)
[11]
  IC50: 8.39 µM (active)

## N#CC(c1ccc(F)cc1)c1ccc(C(=O)c2ccccc2)cc1 (stereo unspecified)
[12]
  AC50: > 100 µM (inactive)

## CC(C)[C@H]1C(=O)N2CCC[C@@H]2[C@]2(O)O[C@@](NC(=O)[C@H]3C=C4c5cccc6[nH]cc(c56)C[C@H]4N(C)C3)(C(C)C)C(=O)N12
[13]
  AC50: 25.1 µM (inconclusive)

## C[C@]12CCC[C@H](O1)[C@H]([C@@H](O)c1ccccc1)O2
[12]
  AC50: 54 µM (active)

## Cc1ccccc1NC(=O)Nc1cccs1
[14]
  EC50: > 50 µM (not active)

## O=C(N=Nc1c(O)[nH]c2ccccc12)c1cc(-c2cccs2)[nH]n1
[9]
  IC50: 11.5 µM (active)
[10]
  IC50: 28.8 µM (active)

## COc1ccc(C(=O)NC(=S)NNC(=O)c2c(-c3ccccc3)noc2C)cc1OC
[15]
  EC50: 0.62 µM (active)
[1]
  EC50: 7.51 µM (active)
[2]
  EC50: 7.42 µM (active)
[16]
  EC50: 7.7 µM (active)
[17]
  EC50: 6.68 µM (active)
[18]
  CC50: 17.2 µM (active)

## COc1ccc2c(c1)c(CC(=O)Nc1ccc(C)cc1)c(C)n2C(=O)c1ccc(Cl)cc1
[19]
  CC50: > 40 µM (active)
[20]
  EC50: 1.04 µM (active)
[21]
  EC50: > 60 µM (not active)

## C/C=C/OC(=O)NC(c1ccccc1)[C@]1(C(C)=O)CCCC1=O (stereo partly specified)
[22]
  AC50: 0.126 µM (inconclusive)
[13]
  AC50: 3.98 µM (inconclusive)

## Cc1ccc(S(=O)(=O)NCC(=O)OCC(=O)Nc2ncc(Cl)cc2Cl)cc1
[3]
  IC50: 71.1 µM (inactive)
[23]
  IC50: > 50 µM (inactive)

## CCOC(=O)C1CCN(C(=O)c2ccc(NC(=O)C3CCCO3)cc2)CC1 (stereo unspecified)
[14]
  EC50: > 50 µM (not active)
